Assay [1] deals with arteriosclerosis. Conditions: Non-patent Publication 5; cited from earlier work.
For assay [2], the system named is thoracic aorta of Wistar rats. The assay is described as follows: Endothelium-dependent vasodilator response of aorta ring from L-NAME-treated rats (Magnus apparatus). Type of assay: in vivo, rat. The method, then:
Wistar rats (7 weeks of age, male) as the test animals were acclimatized for one week. A nitric oxide synthesis inhibitor, NG-nitro-L-arginine methyl ester hydrochloride (L-NAME, manufactured by SIGMA-ALDRICH CORP.) was dissolved in drinking water at the concentration of 1 g/L, and similarly, L-NAME and Val-Pro-Pro synthesized above at 1 g/L and 0.3 g/L, respectively, and L-NAME and Ile-Pro-Pro synthesized above at 1 g/L and 0.3 g/L, respectively. The rats were allowed free access to the prepared drinking water for one week. As a control, only the drinking water without L-NAME dissolved therein was given to a non-treatment group.
Then, the rats were subjected to fatal exsanguination under diethyl ether anesthesia. The thoracic aorta was taken out, cut into 2 mm long, and made into an aorta ring. The ring was set in a Magnus apparatus (product name “micro tissue organ bath MTOB-1Z”, manufactured by LABO SUPPORT CO., LTD.) filled with 5 ml of Tyrode's solution (composition: 158.3 mM of NaCl, 4.0 mM of KCl, 2.0 mM of CaCl2, […] of MaCl2, 0.42 mM of NaH2PO4, 10.0 mM of NaHCO3, and 5.6 mM of glucose; pH 7.4, 37±0.5° C.), and allowed to equilibrate with the resting tension of 2.0 g. The aorta ring was then allowed to constrict with 1 μM of phenylephrine. […] The degree of vasodilation by the response was determined as a ratio to the constriction with 1 μM of phenylephrine. […]

On to `CCOC(=O)[C@H](CCc1ccccc1)N[C@@H](C)C(=O)N1CCC[C@H]1C(=O)O` [enalapril], for which the arteriosclerosis inhibitory effect result in assay [1] was “does not result in an arteriosclerosis inhibitory effect”. Besides, in assay [2] (drinking water for one week: L-NAME 1 g/L, peptide 0.3 g/L, enalapril 0.5 mg/L, 10 μM acetylcholine, ratio to constriction with 1 μM phenylephrine, group average), the Degree of vasodilation is 31.6%. Further, the “degree of vasodilation compared to the group given only L-NAME” value in assay [2] (given together with L-NAME) is recorded as “no significant difference”.

These data come from patent US20090299036A1, “AGENT FOR PREVENTING ARTERIOSCLEROSIS, AGENT FOR SUPPRESSING VASCULAR INTIMAL THICKENING AND AGENT FOR IMPROVING VASCULAR ENDOTHELIAL FUNCTION” (Calpis Co, Ltd, priority 2006, published 2009).
